The record followed here is US20250243180A1, “TARGETED PROTEIN DEGRADATION” (Monte Rosa Therapeutics AG, priority 2023, published 2025).

Where two headings read alike, the source gives them in different places.

The test system of one assay is Caspase-1 activity. The assay can be described thus: Caspase-1 activity in human monocyte-derived macrophages, LPS/nigericin stimulation. It is filed as cell-based. The following applies: Macrophage, 24 h pre-treatment, LPS 3 h then 10 μM nigericin 1 h, read-out: Caspase-1 IC50 (NIG). As to the method:
(§1) Human monocytes were enriched and isolated from a buffy coat of healthy donor whole blood with a RosetteSep™ Human Monocyte Enrichment Cocktail (Cat.No. 15068, StemCell) and Ficoll-Plaque PLUS (Cat.No. H8889, Sigma). Monocytes were differentiated into macrophages by treatment with 100 ng/mL M-CSF for 6 days at 37° C., 5% CO2. Differentiated macrophages were seeded overnight (50,000 cells/well) in 100 µL of medium in a 96-well, white-bottom plate at 37° C., 5% CO2. Cells were treated with a concentration range of MGD for 24 hours prior to stimulation with nigericin. Macrophages were primed with […] LPS for 3 h followed by 1 h stimulation with 10 μM nigericin. Media of stimulated macrophages were collected and assayed for caspase 1 activity directly (Promega G9951), according to manufacturer's instructions. For IL-1β release assay, media of stimulated macrophages were collected and stored at −20° C., then thawed at 4° C. before assaying for IL-1β activity (Promega W6011), according to manufacturer's instructions.

For the next assay, the target named is NEK7 (Homo sapiens (Human), UniProt Q8TDX7+Q96SW2). Nature of the assay: NEK7 NanoBiT degradation assay in Cal51 NEK7 NanoBiT cell line. It is filed as cell-based. The following applies: Cal51 NEK7 NanoBiT cells, 24 hours; for Dmax: CAL-51. An outline of the steps: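 Cal51 cells with CRISPR knock-in HiBiT-tagged endogenous NEK7 plus stable LgBiT, in live-cell Endurazine medium, seeded 16 h before dosing. Compounds at final 1 μM to 0.05 nM for 24 h at 37 °C, then luminescence read. Response normalized to plate controls and fitted with a 4-parameter logistic giving EC50.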
Sequence of NEK7 (Q8TDX7 whole entry): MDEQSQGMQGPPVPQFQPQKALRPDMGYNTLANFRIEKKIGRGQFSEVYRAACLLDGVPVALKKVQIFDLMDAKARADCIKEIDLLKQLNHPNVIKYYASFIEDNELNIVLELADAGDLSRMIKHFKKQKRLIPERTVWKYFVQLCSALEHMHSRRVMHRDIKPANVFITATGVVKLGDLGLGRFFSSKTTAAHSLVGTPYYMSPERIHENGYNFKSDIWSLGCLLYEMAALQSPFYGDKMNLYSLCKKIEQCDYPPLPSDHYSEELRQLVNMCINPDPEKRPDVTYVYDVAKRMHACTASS
Sequence of NEK7 (Q96SW2 whole entry): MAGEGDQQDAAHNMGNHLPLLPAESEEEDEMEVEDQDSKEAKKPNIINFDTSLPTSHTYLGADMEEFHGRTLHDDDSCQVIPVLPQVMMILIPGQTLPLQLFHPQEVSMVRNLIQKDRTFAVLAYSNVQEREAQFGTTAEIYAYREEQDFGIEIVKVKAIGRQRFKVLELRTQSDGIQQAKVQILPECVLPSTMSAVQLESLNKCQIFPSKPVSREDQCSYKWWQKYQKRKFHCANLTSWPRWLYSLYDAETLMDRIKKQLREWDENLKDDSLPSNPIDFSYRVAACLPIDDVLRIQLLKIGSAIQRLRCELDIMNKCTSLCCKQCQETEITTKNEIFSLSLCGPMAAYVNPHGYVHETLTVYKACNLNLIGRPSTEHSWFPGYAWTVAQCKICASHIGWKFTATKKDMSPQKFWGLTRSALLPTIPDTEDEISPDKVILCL
Sequence of NEK7 (Q16531 2-1140 partner): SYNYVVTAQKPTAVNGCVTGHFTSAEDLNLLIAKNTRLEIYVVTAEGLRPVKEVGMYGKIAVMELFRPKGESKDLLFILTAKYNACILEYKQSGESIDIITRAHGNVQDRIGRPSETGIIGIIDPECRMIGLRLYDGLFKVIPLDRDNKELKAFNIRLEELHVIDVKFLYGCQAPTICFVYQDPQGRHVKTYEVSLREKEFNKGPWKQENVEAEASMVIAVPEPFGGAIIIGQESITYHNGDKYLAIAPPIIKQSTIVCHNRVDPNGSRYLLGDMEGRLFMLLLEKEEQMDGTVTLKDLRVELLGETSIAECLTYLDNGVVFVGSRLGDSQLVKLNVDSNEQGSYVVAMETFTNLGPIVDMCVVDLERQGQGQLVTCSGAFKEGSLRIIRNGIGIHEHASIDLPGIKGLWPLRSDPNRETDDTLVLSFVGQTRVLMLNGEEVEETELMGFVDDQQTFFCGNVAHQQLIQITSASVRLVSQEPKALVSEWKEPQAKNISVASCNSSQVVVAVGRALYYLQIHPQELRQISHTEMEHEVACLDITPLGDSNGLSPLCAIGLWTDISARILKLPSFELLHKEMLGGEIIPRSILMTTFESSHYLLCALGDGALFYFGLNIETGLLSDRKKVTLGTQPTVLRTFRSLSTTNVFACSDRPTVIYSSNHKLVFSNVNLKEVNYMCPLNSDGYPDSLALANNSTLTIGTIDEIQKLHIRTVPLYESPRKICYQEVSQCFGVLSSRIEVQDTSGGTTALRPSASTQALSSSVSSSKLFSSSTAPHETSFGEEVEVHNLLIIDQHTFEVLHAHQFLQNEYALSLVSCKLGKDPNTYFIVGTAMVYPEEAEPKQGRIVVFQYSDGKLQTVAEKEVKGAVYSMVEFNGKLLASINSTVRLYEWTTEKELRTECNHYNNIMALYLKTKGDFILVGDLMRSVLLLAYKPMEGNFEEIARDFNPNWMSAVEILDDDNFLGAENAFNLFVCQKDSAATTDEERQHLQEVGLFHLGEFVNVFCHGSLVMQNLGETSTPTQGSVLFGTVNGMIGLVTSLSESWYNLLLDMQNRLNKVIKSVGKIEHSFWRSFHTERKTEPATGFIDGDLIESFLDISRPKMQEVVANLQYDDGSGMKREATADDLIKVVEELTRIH

The test system of a further assay is IL-1β release. The assay can be described thus: IL-1β release in human monocyte-derived macrophages, LPS/nigericin stimulation. It is filed as cell-based. The note with it: Macrophage, 24 h pre-treatment, LPS 3 h then 10 μM nigericin 1 h, read-out: IL-1b IC50 (NIG). As for the experimental part: as §1
Another assay has as its target CRBN-DDB1 (Homo sapiens (Human), UniProt Q96SW2). Nature of the assay: Compound binding to CRBN by HTRF assay. An outline of the steps: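 HTRF displacement of Cy5-thalidomide probe (100 nM) from His-tagged CRBN-DDB1 (2.5 nM) with anti-His terbium cryptate, in HEPES/NaCl/TCEP/EDTA/Tween20 buffer; 11-point 1:3 dilution series, 30 min at ambient temperature. Signal (665/620 nm) normalized to lenalidomide and DMSO controls; EC50 fitted, Ki by Cheng-Prusoff from geometric mean EC50.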

Setting [1] is: NEK7 degradation, read-out: NanoBiT Dmax.
[2] abbreviates: NEK7 degradation, read-out: NanoBiT DC50.

Sequence of CRBN-DDB1 (Q96SW2 whole entry): as the sequence (Q96SW2 whole entry) above
Sequence of CRBN-DDB1 (Q16531 whole entry partner): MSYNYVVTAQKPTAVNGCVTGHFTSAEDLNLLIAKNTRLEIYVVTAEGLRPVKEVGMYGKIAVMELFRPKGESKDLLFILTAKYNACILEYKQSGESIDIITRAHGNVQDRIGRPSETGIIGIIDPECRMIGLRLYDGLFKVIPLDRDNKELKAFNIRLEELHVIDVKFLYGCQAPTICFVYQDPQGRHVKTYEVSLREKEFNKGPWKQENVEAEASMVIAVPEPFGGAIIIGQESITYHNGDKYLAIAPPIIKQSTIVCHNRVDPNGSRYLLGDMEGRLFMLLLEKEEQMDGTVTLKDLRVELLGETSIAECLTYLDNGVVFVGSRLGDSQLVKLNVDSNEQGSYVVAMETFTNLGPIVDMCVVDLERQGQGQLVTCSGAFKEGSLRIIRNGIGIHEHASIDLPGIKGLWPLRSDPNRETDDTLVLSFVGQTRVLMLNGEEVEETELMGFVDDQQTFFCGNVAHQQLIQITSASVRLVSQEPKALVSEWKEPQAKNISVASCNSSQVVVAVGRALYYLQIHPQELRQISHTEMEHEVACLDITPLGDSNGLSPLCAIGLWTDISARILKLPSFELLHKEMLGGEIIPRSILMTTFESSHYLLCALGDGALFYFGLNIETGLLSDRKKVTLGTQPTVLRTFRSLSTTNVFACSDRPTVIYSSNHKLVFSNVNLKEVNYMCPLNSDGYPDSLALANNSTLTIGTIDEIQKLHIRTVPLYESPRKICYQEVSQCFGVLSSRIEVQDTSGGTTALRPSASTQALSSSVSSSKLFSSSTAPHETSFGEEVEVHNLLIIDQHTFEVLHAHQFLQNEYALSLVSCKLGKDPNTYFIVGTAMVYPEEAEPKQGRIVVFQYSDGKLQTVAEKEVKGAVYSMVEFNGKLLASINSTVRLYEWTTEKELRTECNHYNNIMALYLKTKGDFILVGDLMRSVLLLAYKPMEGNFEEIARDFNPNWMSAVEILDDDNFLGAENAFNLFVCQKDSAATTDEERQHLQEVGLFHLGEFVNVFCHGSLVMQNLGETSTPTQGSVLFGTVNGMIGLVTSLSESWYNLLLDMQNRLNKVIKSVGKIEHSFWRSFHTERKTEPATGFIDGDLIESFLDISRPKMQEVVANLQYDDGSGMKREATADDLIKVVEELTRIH

In the case of `Cc1cnc(C(C)(C)C(=O)NCc2cc(Cl)c(C3CCC(=O)NC3=O)c(Cl)c2)nc1` (stereo not shown) [Compound 14, N-(3,5-dichloro-4-(2,6-dioxopiperidin-3-yl)benzyl)-2-methyl-2-(5-methylpyrimidin-2-yl)-propanamide], the IC50 in the assay on Caspase-1 activity was determined as 1.85 nM; with IL-1β release it was 1.95 nM. In addition, the Dmax on NEK7 (read-out: NEK7 NanoBiT Dmax) is 89%; on NEK7 (setting [1]), more than 75%. The half-maximal degradation concentration (DC50) was 9 nM at NEK7 (read-out: NEK7 NanoBiT DC50) and not above 100 nM on NEK7 (setting [2]). Also, the EC50 at CRBN-DDB1 was 110 nM; on CRBN-DDB1 (HTRF class, Cereblon binding), 100 to 1000 nM.
On to `CC(C)(C(=O)NCc1cc(Cl)c(C2CCC(=O)NC2=O)c(Cl)c1)c1ncc(C#N)cn1` (stereo not shown) [Compound 16, 2-(5-cyanopyrimidin-2-yl)-N-(3,5-dichloro-4-(2,6-dioxopiperidin-3-yl)benzyl)-2-methyl-propanamide], for which the half-inhibitory concentration (IC50) was determined as 0.32 nM with Caspase-1 activity and 0.56 nM in the assay on IL-1β release. The results for the greatest degradation seen (Dmax) on NEK7 (read-out: NEK7 NanoBiT Dmax) and on NEK7 (setting [1]) were 95% and more than 75%, respectively. The results for the 50% degradation concentration (DC50) at NEK7 (read-out: NEK7 NanoBiT DC50) and at NEK7 (setting [2]) were 4 nM and not above 100 nM, respectively. Besides, the half-maximal effective concentration (EC50) is 120 nM on CRBN-DDB1 and 100 to 1000 nM on CRBN-DDB1 (HTRF class, Cereblon binding).
